{"source": "patent US20070059382A1", "about": "(Board of Regents, Univ. and Comm. College System of …, priority 2005, published 2007)", "key": {"[1]": {"tested_on": "cyclins A-E and MAPK proteins", "conditions": "cited from earlier work"}, "[2]": {"conditions": "in vivo; cited from earlier work"}, "DU-145 cells": {"tested_on": "DU-145 cells", "conditions": "cited from earlier work"}, "ZR-75-1 [3]": {"tested_on": "ZR-75-1", "experiment": "Cell attachment (reattachment after trypsin harvest)"}, "PC-3": {"tested_on": "PC-3", "conditions": "cited from earlier work"}, "LNCaP": {"tested_on": "LNCaP", "conditions": "cited from earlier work"}, "DU-145": {"tested_on": "DU-145", "conditions": "cited from earlier work"}, "MCF-7 [4]": {"tested_on": "MCF-7", "experiment": "Cell attachment (reattachment after trypsin harvest)"}, "ZR-75-1 [5]": {"tested_on": "ZR-75-1", "experiment": "Detachment of growing cells (attached and floating cells)", "type": "cell-based, human", "conditions": "seven days, 0.5 to 10 mM boric acid", "from_the_text": "We quantified the attached and floating cells. The data is shown below in FIG. 7."}, "MCF-7 [6]": {"tested_on": "MCF-7", "conditions": "1 mM"}, "LNCaP tumor": {"tested_on": "LNCaP tumor", "conditions": "nude mice, 1.7 and 9.0 mgB/Kg/day; cited from earlier work"}, "[7]": {"tested_on": "non-tumorigenic prostate cell lines", "conditions": "cited from earlier work"}, "HeLa cells": {"tested_on": "HeLa cells", "experiment": "Growth of HeLa cells (express the NaBC1 transporter)", "type": "cell-based", "conditions": "1 mM"}, "[8]": {"conditions": "humans, chronic (about 1 g of boric acid); cited from earlier work"}, "ZR-75-1 [9]": {"tested_on": "ZR-75-1"}, "[10]": {"conditions": "in vivo; cited from earlier work", "remark": "listed apart in the source"}, "[11]": {"conditions": "treated three days, then boric acid removed"}}, "note": "“And” between values parts separate entries of the source, which are not always exact repeats. Equal values may be shown once. “Also recorded” adds a separate entry of the source. Read-outs that look alike come from different tables or passages of the source."}
{"molecule": "OB(O)O", "note": "[boric acid]", "values": [{"measurement": "change in cyclins A-E and MAPK proteins", "setting": "[1]", "result": "dose-dependent reduction"}, {"measurement": "fraction excreted in the urine", "setting": "[2]", "result": "about 85%"}, {"measurement": "half-life", "setting": "[2]", "result": "about 21 hrs"}, {"measurement": "time to excretion in the urine after ingestion", "setting": "[2]", "result": "≤ 24", "unit": "h"}, {"measurement": "adhesion, migration and invasion potential", "setting": "DU-145 cells", "result": "reduced"}, {"measurement": "effect on cell attachment", "setting": "ZR-75-1 [3]; ZR-75-1, 1 mM (Experiments 1, 2)", "result": "inhibit the attachment; also recorded: inhibited their reattachment"}, {"measurement": "effect on cell attachment", "setting": "ZR-75-1 [3]; ZR-75-1, 1 mM (Experiments 1, 2), listed as BA", "result": "did not"}, {"measurement": "percentage of cells that had reattached", "setting": "ZR-75-1 [3]; ZR-75-1, 30 min, 1 mM each compound", "result": "24.5 ± 5.2", "unit": "%"}, {"measurement": "percentage of cells that had reattached", "setting": "ZR-75-1 [3]; ZR-75-1, 60 min, 1 mM each compound", "result": "74.1 ± 26.1", "unit": "%"}, {"measurement": "percentage of cells that had reattached", "setting": "ZR-75-1 [3]; ZR-75-1, 90 min, 1 mM each compound", "result": "98.2 ± 34.0", "unit": "%"}, {"measurement": "percentage of cells that had reattached", "setting": "ZR-75-1 [3]; ZR-75-1, 120 min, 1 mM each compound", "result": "104.0 ± 16.1", "unit": "%"}, {"measurement": "growth inhibition", "setting": "PC-3", "result": "inhibits the growth"}, {"measurement": "growth inhibition", "setting": "PC-3; listed as BA", "result": "much less sensitive"}, {"measurement": "growth inhibition", "setting": "LNCaP", "result": "inhibits the growth"}, {"measurement": "growth inhibition", "setting": "LNCaP; listed as BA", "result": "much less sensitive"}, {"measurement": "growth inhibition", "setting": "DU-145", "result": "inhibits the growth"}, {"measurement": "growth inhibition", "setting": "DU-145; listed as BA", "result": "sensitive"}, {"measurement": "effect on cell attachment", "setting": "MCF-7 [4]; MCF-7, 1 mM (Experiments 3, 4)", "result": "did not"}, {"measurement": "percentage of cells that had reattached", "setting": "MCF-7 [4]; MCF-7, 30 min, 1 mM each compound", "result": "53.5 ± 3.0", "unit": "%"}, {"measurement": "percentage of cells that had reattached", "setting": "MCF-7 [4]; MCF-7, 60 min, 1 mM each compound", "result": "92.6 ± 9.1", "unit": "%"}, {"measurement": "percentage of cells that had reattached", "setting": "MCF-7 [4]; MCF-7, 90 min, 1 mM each compound", "result": "105.7 ± 6.8", "unit": "%"}, {"measurement": "percentage of cells that had reattached", "setting": "MCF-7 [4]; MCF-7, 120 min, 1 mM each compound", "result": "97.5 ± 4.1", "unit": "%"}, {"measurement": "cell detachment / floating cells", "setting": "ZR-75-1 [5]", "result": "causing breast cancer cells to detach and undergo apoptosis; also recorded: cells were seen floating in the media"}, {"measurement": "growth inhibition", "setting": "MCF-7 [6]", "result": "not growth inhibited; also recorded: no growth inhibition; also recorded: much less sensitive"}, {"measurement": "inhibition of LNCaP tumor growth", "setting": "LNCaP tumor", "result": "about 30%"}, {"measurement": "growth inhibition", "setting": "[7]", "result": "not"}, {"measurement": "growth inhibition", "setting": "SK-BR-3; 1 mM", "result": "growth inhibition"}, {"measurement": "time to resume normal growth rate after boric acid removal", "setting": "SK-BR-3; [11]", "result": "about three"}, {"measurement": "growth inhibition", "setting": "HeLa cells", "result": "very little inhibition"}, {"measurement": "chronic intake with no adverse effects", "setting": "[8]", "result": 2.5, "unit": "mg/kg/day"}, {"measurement": "growth inhibition", "setting": "ZR-75-1 [9]; 1 mM", "result": "sensitive; also recorded: growth inhibition; also recorded: very sensitive"}, {"measurement": "time to resume normal growth rate after boric acid removal", "setting": "ZR-75-1 [9]; [11]", "result": "about three"}]}
{"molecule": "[Cl][Mn][Cl]", "note": "[MnCl2, reference compound]", "values": [{"measurement": "effect on cell attachment", "setting": "ZR-75-1 [3]", "result": "stimulates attachment"}, {"measurement": "percentage of cells that had reattached", "setting": "ZR-75-1 [3]", "result": "42.6 ± 12.0% and 67.3 ± 12.0% and 70.2 ± 1.4% and 77.8 ± 13.6%"}, {"measurement": "effect on cell attachment", "setting": "MCF-7 [4]", "result": "stimulates attachment"}, {"measurement": "percentage of cells that had reattached", "setting": "MCF-7 [4]", "result": "53.9 ± 12.3% and 69.4 ± 2.9% and 74.9 ± 3.6% and 81.5 ± 9.9%"}]}
{"molecule": "[B]", "note": "[boron]", "values": [{"measurement": "Tolerable Upper Intake Level (UL)", "setting": "[10]", "result": 20, "unit": "mg/day"}]}
